Data reported in article PMC9260667, “Thioredoxin Reductase Inhibitors as Potential Antitumors: Mercury Compounds Efficacy in Glioma Cells” (Frontiers in Molecular Biosciences, 2022).

Legend:
Trx [1] = target: T1, Trx (Mus musculus, UniProt P10639); format: cell-based; conditions: cytosol, GL261 exposed 24 h
T1 construct: These lysates were compared to a control group and used to quantify TrxR and Trx activity and expression; These fractions were used to quantify TrxR and Trx activity and expression; endogenous in cells; host or cells: GL261 mouse glioma cells (whole lysate, cytosolic and mitochondrial fractions)
Procedure: (§1) Total cell lysates were prepared according to previous protocols ([Branco et al., 2014]). 1 × 10^6 cells were plated in […] culture dishes incubated at 37°C until reaching 70–80% confluence. At this point, the culture medium was refreshed and TmHg and EtHg (0.5; 1; 2 µM) were added and incubated at 37°C for 24 h, after which cells were collected by trypsinization and washed with PBS 1x. Subsequently, the pellet was resuspended in lysis buffer (25 mM TrisCl, pH 7.5; 100 mM NaCl; 2.5 mM EDTA; 2.5 mM EGTA; 20 mM NaF, 1 mM sodium orthovanadate, 20 mM sodium pyrophosphate; 20 mM of sodium β-glycerophosphate, 0.5% Triton X-100, and 1 tablet of protease inhibitor cocktail per 10 ml; Roche) vortexed and frozen at −20°C. These lysates were compared to a control group and used to quantify TrxR and Trx activity and expression as described below.
(§2) To obtain the mitochondrial and cytosolic fractions, after exposure to Hg compounds cells were washed and suspended in mitochondrial isolation buffer (210 mM mannitol, 70 mM sucrose, 1 mM EDTA, 10 mM Hepes–NaOH, and pH 7.5), containing protease inhibitor cocktail (Roche). Cells were disrupted with a Teflon pestle and then centrifuged at 600 g for 10 min at 4°C. The resulting nuclear pellets were discarded, and the supernatant was further centrifuged at 13,000 g and 4°C for 15 min, to obtain the mitochondrial pellets and the supernatant soluble fraction. Mitochondrial pellets were treated with cell lysis buffer as described above for whole-cell lysates and the supernatant fraction was further centrifuged at 100,000 g and 4°C for 1 h, to produce the cytosolic fraction ([Branco et al., 2014]). These fractions were used to quantify TrxR and Trx activity and expression as described below.
(§3) The enzymatic activity of TrxR and Trx was determined according to the insulin end-point assay described by [Arnér and Holmgren (2000)] with modifications ([Branco et al., 2014]).
(§4) In parallel, control wells were prepared to contain the same reagents previously mentioned apart from Trx. After the incubation period, 250 µL of a 1 mM DTNB solution in 6 M guanidine-HCL (pH 8.0) was added to wells, and absorbance was measured at 412 nm in a microplate reader (Zenyth 3100, Anthos Labtec Instruments). […] The same procedure was done for the determination of Trx activity, but the samples were incubated with 100 nM of recombinant rat TrxR (IMCO Corp, Sweden) instead of Trx ([Branco et al., 2014]).

Trx [2] = target: T2, Trx (Mus musculus, UniProt P97493); format: cell-based; conditions: mitochondria, GL261 exposed 24 h
T2 construct: These lysates were compared to a control group and used to quantify TrxR and Trx activity and expression; These fractions were used to quantify TrxR and Trx activity and expression; endogenous in cells; host or cells: GL261 mouse glioma cells (whole lysate, cytosolic and mitochondrial fractions)
Procedure: as §1, §2, §3, §4

T1 sequence (P10639 whole entry): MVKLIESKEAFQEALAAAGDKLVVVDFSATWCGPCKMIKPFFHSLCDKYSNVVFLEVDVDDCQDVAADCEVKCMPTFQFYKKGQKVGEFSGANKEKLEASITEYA
T2 sequence (P97493 60-166): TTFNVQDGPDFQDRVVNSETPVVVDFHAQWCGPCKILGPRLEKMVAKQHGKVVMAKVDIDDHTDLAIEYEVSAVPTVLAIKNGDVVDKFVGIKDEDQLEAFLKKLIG

**Q.** Which results are given for C[CH2][Hg][S]c1ccccc1C(=O)[O-].[Na+] [TmHg, thimerosal]?
**A.** IC50 (Trx [1]): 1200 nM; IC50 (Trx [2]): 1600 nM
